The target of one assay is T1, FGFR1 (Homo sapiens, UniProt P11362).
T1 construct: cytoplasmic domain [398-822 (terminal) amino acids]; purchased Carna 08-133
The assay is described as follows: FGFR1 kinase activity inhibition assay (LanthaScreen TR-FRET). The class given is biochemical. As to the method: (§1) PV3552) and 10 mM EDTA were added to quench the kinase reaction, and incubated at 22°C for 60 minutes. • ⑤ The reaction was measured using a PerkinElmer EnVision multimode plate reader through TR-FRET dual wavelength detection. • 1. The RFU values were copied from the Envision program. • 2. The ratio of RFU 520nm/RFU 495nm was calculated. • 3. The value of the ratio was converted to a percentage inhibition value. % Inhibition = (max-data)/(max-min) × 100 [formula] "Min" represents the ratio of the control without enzyme, "max" represents the ratio of the DMSO control, and "data" represents the ratio of the compounds in wells with different concentrations. […] "Top" refers to the maximum response, "Bottom" refers to the minimum response, and "HillSlope" refers to the slope of the curve.

A further assay has as its target T2, FGFR3 (Homo sapiens, UniProt P22607).
T2 construct: FGFR3's cytoplasmic domain [436-806 (terminal) amino acids]; purchased Carna 08-135
Put plainly: FGFR3 kinase activity inhibition assay (LanthaScreen TR-FRET). The conditions noted are these: for Selectivity (X) FGFR1/FGFR3: ratio of IC50 FGFR1/FGFR3, selectivity towards FGFR3. The class given is biochemical. As to the method:
as §1, with “curve. According to the same method as that in the FGFR1 kinase activity inhibition assay, the inhibitory activities against FGFR2, FGFR3 and FGFR4 were tested using FGFR2's cytoplasmic domain [399-821 (terminal) amino acids] (Carna: 08-134), FGFR3's cytoplasmic domain [436-806 (terminal) amino acids] (Carna: 08-135) and FGFR4's cytoplasmic domain [460-802 (terminal) amino acids] (Carna: 08-136), respectively. […]” for “curve.”
In general terms: In TR-FRET formats the signal depends on donor and acceptor labels being close together.

Where [1] appears, read: FGFR1 kinase, TR-FRET, read-out: IC50 (nM) FGFR1.
[2] abbreviates: FGFR3 kinase, TR-FRET, read-out: IC50 (nM) FGFR3.

This note sets out measurements from patent EP4644383A1 (Jiangsu Yahong Meditech Co., Ltd., priority 2022, dated 2024).

Usually IC50 stands for the concentration that inhibits the measured activity by half.

Each structure is given as a SMILES string. Like-named read-outs stand apart in the source and are kept apart here.

T1 sequence (P11362 398-822): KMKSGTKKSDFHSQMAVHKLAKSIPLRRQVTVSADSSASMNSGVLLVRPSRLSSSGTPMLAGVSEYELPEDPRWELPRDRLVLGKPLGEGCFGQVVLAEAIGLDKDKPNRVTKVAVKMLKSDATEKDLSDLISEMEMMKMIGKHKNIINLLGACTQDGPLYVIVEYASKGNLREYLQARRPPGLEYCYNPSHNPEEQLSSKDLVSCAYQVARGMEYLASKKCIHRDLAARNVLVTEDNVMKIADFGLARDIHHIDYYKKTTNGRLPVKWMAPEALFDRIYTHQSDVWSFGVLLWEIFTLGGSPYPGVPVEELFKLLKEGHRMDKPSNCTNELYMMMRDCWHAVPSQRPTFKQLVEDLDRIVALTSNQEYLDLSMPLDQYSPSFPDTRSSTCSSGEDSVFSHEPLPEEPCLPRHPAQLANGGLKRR
T2 sequence (P22607 436-806): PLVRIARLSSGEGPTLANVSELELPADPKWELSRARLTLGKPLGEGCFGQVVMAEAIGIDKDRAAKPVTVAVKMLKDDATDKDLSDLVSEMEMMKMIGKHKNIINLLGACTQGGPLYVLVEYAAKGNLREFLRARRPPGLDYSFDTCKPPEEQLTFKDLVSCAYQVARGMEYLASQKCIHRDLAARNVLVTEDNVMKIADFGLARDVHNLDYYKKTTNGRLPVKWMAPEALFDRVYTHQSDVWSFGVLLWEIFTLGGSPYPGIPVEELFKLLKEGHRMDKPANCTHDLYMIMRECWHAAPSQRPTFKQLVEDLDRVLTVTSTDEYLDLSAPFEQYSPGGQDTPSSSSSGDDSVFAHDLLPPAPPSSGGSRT

On to `C[C@@H](Oc1cc(F)c2[nH]nc(-c3cnn(CCC4CCOCC4)c3)c2c1)c1c(Cl)cncc1Cl` [Example 18, (R)-5-(1-(3,5-dichloropyridin-4-yl)ethoxy)-7-fluoro-3-(1-(2-(tetrahydro-2H-pyran-4-yl)ethyl)-1H-pyrazol-4-yl)-1H-indazole], for which, on FGFR1, the IC50 lay within 1 to 10 nM. In addition, at FGFR3, the 50% inhibitory concentration (IC50) is 1 to 10 nM and the “Selectivity (X) FGFR1/FGFR3” value is on record as “A (A represents 1 ≤ multiple X<20)”.

With `C[C@@H](Oc1cc(F)c2[nH]nc(-c3cnn(CC(=O)N4CCOCC4)c3)c2c1)c1c(Cl)cncc1Cl` [Example 19, (R)-2-(4-(5-(1-(3,5-dichloropyridin-4-yl)ethoxy)-7-fluoro-1H-indazol-3-yl)-1H-pyrazol-1-yl)-1-morpholinoetha n-1-one], the concentration for half-maximal inhibition (IC50) at FGFR1 (setting [1]) and on FGFR3 (setting [2]) was 10 to 100 nM each time. For the same compound, the “Selectivity (X) FGFR1/FGFR3” value at FGFR3 is reported as “A (A represents 1 ≤ multiple X<20)”.

With `COCCN(C)CCn1cc(-c2n[nH]c3c(F)cc(O[C@H](C)c4c(Cl)cncc4Cl)cc23)cn1` [Example 20, (R)-2-(4-(5-(1-(3,5-dichloropyridin-4-yl)ethoxy)-7-fluoro-1H-indazol-3-yl)-1H-pyrazol-1-yl)-N-(2-methoxyethyl)-N-methylethan-1-amine], the results for the 50% inhibitory concentration (IC50) at FGFR1 (setting [1]) and on FGFR3 (setting [2]) were 1 to 10 nM and < 1 nM, respectively. Further, the “Selectivity (X) FGFR1/FGFR3” value on FGFR3 is given as “A (A represents 1 ≤ multiple X<20)”.

Turning to `COCCOCCn1cc(-c2n[nH]c3c(F)cc(O[C@H](C)c4c(Cl)cncc4Cl)cc23)cn1` [Example 21], the 50% inhibitory concentration (IC50) against FGFR1 was > 100 nM. On FGFR3, the half-inhibitory concentration (IC50) is 10 to 100 nM and the “Selectivity (X) FGFR1/FGFR3” value is listed as “A (A represents 1 ≤ multiple X<20)”.

As to `C[C@@H](Oc1cc(F)c2[nH]nc(-c3cnn(CCN4CCN(C)CC4)c3)c2c1)c1c(Cl)cncc1Cl` [Example 22, (R)-5-(1-(3,5-dichloropyridin-4-yl)ethoxy)-7-fluoro-3-(1-(2-(4-methylpiperazin-1-yl)ethyl)-1H-pyrazol-4-yl)-1H-indazole], the figures for the concentration for half-maximal inhibition (IC50) at FGFR1 (setting [1]) and on FGFR3 (setting [2]) were 10 to 100 nM and 1 to 10 nM, respectively. In addition, on FGFR3, the “Selectivity (X) FGFR1/FGFR3” value is “A (A represents 1 ≤ multiple X<20)”.

With `COc1cc(O[C@H](C)c2c(Cl)cncc2Cl)cc2c(-c3cnn(CCN4CCOCC4)c3)n[nH]c12` [Example 25, (R)-4-(2-(4-(5-(1-(3,5-dichloropyridin-4-yl)ethoxy)-7-methoxy-1H-indazol-3-yl)-1H-pyrazol-1-yl)ethyl)morpholine], the IC50 on FGFR1 was > 100 nM. On FGFR3, the IC50 is > 100 nM and the “Selectivity (X) FGFR1/FGFR3” value is given as “B (B represents 20 ≤ multiple X<50)”.

As for `Cc1cc(O[C@H](C)c2c(Cl)cncc2Cl)cc2c(-c3cnn(CC4CC4)c3)n[nH]c12` [Example 26, (R)-3-(1-(cyclopropylmethyl)-1H-pyrazol-4-yl)-5-(1-(3,5-dichloropyridin-4-yl)ethoxy)-7-methyl-1H-indazole], the IC50 was > 100 nM against FGFR1 and 10 to 100 nM at FGFR3. Further, the “Selectivity (X) FGFR1/FGFR3” value at FGFR3 is reported as “B (B represents 20 ≤ multiple X<50)”.

The compound `Cc1c(-c2n[nH]c3ccc(O[C@H](C)c4c(Cl)cncc4Cl)nc23)cnn1C` [Example 30, (R)-5-(1-(3,5-dichloropyridin-4-yl)ethoxy)-3-(1,5-dimethyl-1H-pyrazol-4-yl)-1H-pyrazolo[4,3-b]pyridine] displayed an IC50 at FGFR1 of 10 to 100 nM. Besides, on FGFR3, the 50% inhibitory concentration (IC50) was in the range of 10 to 100 nM and the “Selectivity (X) FGFR1/FGFR3” value is listed as “A (A represents 1 ≤ multiple X<20)”.

Consider `C[C@@H](Oc1ccc2[nH]nc(-c3cnn(CCCN4CCOCC4)c3)c2n1)c1c(Cl)cncc1Cl` [Example 32, (R)-4-(3-(4-(5-(1-(3,5-dichloropyridin-4-yl)ethoxy)-1H-pyrazolo[4,3-b]pyridin-3-yl)-1H-pyrazol-1-yl)propyl)morpholine], for which the figures for the half-maximal inhibitory concentration (IC50) on FGFR1 (setting [1]) and on FGFR3 (setting [2]) were 1 to 10 nM and < 1 nM, respectively. On FGFR3, the “Selectivity (X) FGFR1/FGFR3” value is given as “A (A represents 1 ≤ multiple X<20)”.

On to `C[C@@H](Oc1ccc2[nH]nc(-c3cnn(C4CCOCC4)c3)c2n1)c1c(Cl)cncc1Cl` [Example 34, (R)-5-(1-(3,5-dichloropyridin-4-yl)ethoxy)-3-(1-(tetrahydro-2H-pyran-4-yl)-1H-pyrazol-4-yl)1H-pyrazolo[4,3-b]pyridine], for which the half-inhibitory concentration (IC50) on FGFR1 (setting [1]) and at FGFR3 (setting [2]) was 1 to 10 nM each time. The “Selectivity (X) FGFR1/FGFR3” value on FGFR3 is given as “A (A represents 1 ≤ multiple X<20)”.

Turning to `CC(=O)N1CCC(n2cc(-c3n[nH]c4ccc(O[C@H](C)c5c(Cl)cncc5Cl)nc34)cn2)CC1` [Example 35], the half-inhibitory concentration (IC50) was 1 to 10 nM on FGFR1 and < 1 nM on FGFR3. The “Selectivity (X) FGFR1/FGFR3” value at FGFR3 is given as “A (A represents 1 ≤ multiple X<20)”.

As for `COCCn1cc(-c2n[nH]c3ccc(O[C@H](C)c4c(Cl)cncc4Cl)nc23)cn1` [Example 40, (R)-5-(1-(3,5-dichloropyridin-4-yl)ethoxy)-3-(1-(2-methoxyethyl)-1H-pyrazol-4-yl)-1H-pyrazolo[4,3-b]pyridine], on FGFR1, the 50% inhibitory concentration (IC50) was in the range of 10 to 100 nM. For the same compound, at FGFR3, the 50% inhibitory concentration (IC50) lay in the range of 1 to 10 nM and the “Selectivity (X) FGFR1/FGFR3” value is given as “A (A represents 1 ≤ multiple X<20)”.

Take `C[C@@H](Oc1ccc2[nH]nc(-c3cnn(CCS(C)(=O)=O)c3)c2n1)c1c(Cl)cncc1Cl` [Example 42, (R)-5-(1-(3,5-dichloropyridin-4-yl)ethoxy)-3-(1-(2-(methylsulfonyl)ethyl)-1H-pyrazol-4-yl)-1H-pyrazolo[4,3-b]pyridine]: the figures for the IC50 on FGFR1 (setting [1]) and on FGFR3 (setting [2]) were 10 to 100 nM and 1 to 10 nM, respectively. Also, the “Selectivity (X) FGFR1/FGFR3” value on FGFR3 is on record as “B (B represents 20 ≤ multiple X<50)”.

Regarding `C[C@@H](Oc1ccc2[nH]nc(-c3cnn4c3CCC4)c2n1)c1c(Cl)cncc1Cl` [Example 45, (R)-5-(1-(3,5-dichloropyridin-4-yl)ethoxy)-3-(5,6-dihydro-4H-pyrrolo[1,2-b]pyrazol-3-yl)-1H-pyrazolo[4,3-b]pyridine], the figures for the IC50 on FGFR1 (setting [1]) and at FGFR3 (setting [2]) were > 100 nM and 10 to 100 nM, respectively. At FGFR3, the “Selectivity (X) FGFR1/FGFR3” value is given as “A (A represents 1 ≤ multiple X<20)”.

Consider `CCCn1cc(-c2n[nH]c3ccc(O[C@H](C)c4c(Cl)cncc4Cl)nc23)cn1` [Example 46, (R)-5-(1-(3,5-dichloropyridin-4-yl)ethoxy)-3-(1-propyl-1H-pyrazol-4-yl)-1H-pyrazolo[4,3-b]pyridine], for which the IC50 on FGFR1 (setting [1]) is 10 to 100 nM; at FGFR3 (setting [2]) it was < 1 nM. On FGFR3, the “Selectivity (X) FGFR1/FGFR3” value is on record as “B (B represents 20 ≤ multiple X<50)”.

As for `C[C@@H](Oc1ccc2[nH]nc(-c3cnn(CC4CC4)c3)c2n1)c1c(Cl)cncc1Cl` [Example 49, (R)-3-(1-(cyclopropylmethy 1)-1H-pyrazol-4-yl)-5-(1-(3,5-dichloropyridin-4-yl)ethoxy)-1H-pyrazolo[4,3-b]pyridine], the IC50 lay within 10 to 100 nM at FGFR1 (setting [1]) and 1 to 10 nM at FGFR3 (setting [2]). In addition, on FGFR3, the “Selectivity (X) FGFR1/FGFR3” value is “B (B represents 20 ≤ multiple X<50)”.

Take `C[C@@H](Oc1ccc2[nH]nc(-c3cnn(CCC#N)c3)c2n1)c1c(Cl)cncc1Cl` [Example 50, (R)-3-(4-(5-(1-(3,5-dichloropyridin-4-yl)ethoxy)-1H-pyrazolo[4,3-b]pyridin-3-yl)-1H-pyrazol-1-yl)propionitrile]: the IC50 at FGFR1 (setting [1]) is 10 to 100 nM; on FGFR3 (setting [2]) it was < 1 nM. On FGFR3, the “Selectivity (X) FGFR1/FGFR3” value was “A (A represents 1 ≤ multiple X<20)”.

With `Cc1ncc(-c2n[nH]c3ccc(O[C@H](C)c4c(Cl)cncc4Cl)nc23)cn1` [Example 52, (R)-5-(1-(3,5-dichloropyridin-4-yl)ethoxy)-3-(2-methylpyrimidin-5-yl)-1H-pyrazolo[4,3-b]pyridine], the concentration for half-maximal inhibition (IC50) is > 100 nM on FGFR1 (setting [1]) and 10 to 100 nM at FGFR3 (setting [2]). In addition, at FGFR3, the “Selectivity (X) FGFR1/FGFR3” value is “A (A represents 1 ≤ multiple X<20)”.

On to `C[C@@H](Oc1ccc2[nH]nc(-c3cnn(CCN4CCN(C)CC4)c3)c2n1)c1c(Cl)cncc1Cl` [Example 53, (R)-5-(1-(3,5-dichloropyridin-4-yl)ethoxy)-3-(1-(2-(4-methylpiperazin-1-yl)ethyl)-1H-pyrazol-4-yl)-1H-pyrazolo[4,3-b]pyridine], for which the IC50 on FGFR1 (setting [1]) is 1 to 10 nM; at FGFR3 (setting [2]), < 1 nM. Besides, the “Selectivity (X) FGFR1/FGFR3” value on FGFR3 was “A (A represents 1 ≤ multiple X<20)”.

`C[C@@H](Oc1ccc2[nH]nc(-c3cnn(CCN4CCN(S(C)(=O)=O)CC4)c3)c2n1)c1c(Cl)cncc1Cl` [Example 56, (R)-5-(1-(3,5-dichloropyridin-4-yl)ethoxy)-3-(1-(2-(4-(methylsulfonyl)piperazin-1-yl)ethyl)-1H-pyrazol-4-yl)-1H-pyrazolo[4,3-b]pyridine]: the figures for the IC50 on FGFR1 (setting [1]) and at FGFR3 (setting [2]) were 1 to 10 nM and < 1 nM, respectively. Moreover, the “Selectivity (X) FGFR1/FGFR3” value at FGFR3 is recorded as “A (A represents 1 ≤ multiple X<20)”.
